Data published in patent US20250042920A1 (OCEAN UNIVERSITY OF CHINA, priority 2021, published 2025).

Experiments:
MNK2 = MNK2 (Homo sapiens, UniProt Q9HBH9); assay: MNK2 kinase inhibition assay (LANCE Ultra kinase activity assay, PerkinElmer); format: biochemical; settings: 100 μM ATP; for IC50: five concentrations 10000-1 nM; for inhibition at 1 µM: inhibition rate at 1000 nM compound, 60 min, 25° C., read-out: Inhibitory activity(1 μM) MNK2
Method: (§1) MNK1 and MNK2 kinase inhibition assays were performed using LANCE Ultra kinase activity assay developed by PerkinElmer. […] The test steps are as follows: At 25° C., 1.00 ng MNK1 or 0.05 ng MNK2 was prepared with different concentrations (10000, 1000, 100, 10, 1 nM) of the tested compound to form a total volume of 10 μL reaction mixture (MNK1: 12.5 nM CREB, 450 μM ATP, 2 mM DTT, 1× buffer; MNK2: 12.5 nM CREB, 100 μM ATP, 2 mM DTT, 1×buffer), and incubation for 60 min. The reaction was terminated by adding 5 μL EDTA/Detection buffer and 5 μL Eu-CREB/Detection buffer. The ratio of HTRF signals at 615 nm and 665 nm was detected after 60 min of incubation. The inhibition rate was calculated by measuring the compounds at 1000 nM.
(§2) Then five different concentrations (10000, 1000, 100, 10, 1 nM) of the tested compounds were measured, and the IC50 value was calculated according to the inhibition rate fitting curve.

MNK1 = MNK1 (Homo sapiens, UniProt Q9BUB5); assay: MNK1 kinase inhibition assay (LANCE Ultra kinase activity assay, PerkinElmer); format: biochemical; settings: 450 μM ATP; for IC50: five concentrations 10000-1 nM; for inhibition at 1 µM: inhibition rate at 1000 nM compound, 60 min, 25° C., read-out: Inhibitory activity(1 μM) MNK1
Method: as §1, §2

MNK2, sequence (Q9HBH9 whole entry): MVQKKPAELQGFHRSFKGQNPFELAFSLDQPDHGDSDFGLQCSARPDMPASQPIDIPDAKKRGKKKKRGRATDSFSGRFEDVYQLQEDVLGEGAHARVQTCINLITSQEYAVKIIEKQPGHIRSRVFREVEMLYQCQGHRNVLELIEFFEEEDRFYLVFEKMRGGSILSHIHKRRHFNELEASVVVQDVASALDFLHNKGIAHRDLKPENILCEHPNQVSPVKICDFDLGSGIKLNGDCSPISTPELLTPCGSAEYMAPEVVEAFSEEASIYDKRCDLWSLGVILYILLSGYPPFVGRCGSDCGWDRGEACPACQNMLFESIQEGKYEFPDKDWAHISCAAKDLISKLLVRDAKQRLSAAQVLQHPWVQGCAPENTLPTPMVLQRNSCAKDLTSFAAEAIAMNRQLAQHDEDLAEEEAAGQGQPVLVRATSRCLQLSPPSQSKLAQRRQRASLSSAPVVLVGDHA
MNK1, sequence (Q9BUB5 whole entry): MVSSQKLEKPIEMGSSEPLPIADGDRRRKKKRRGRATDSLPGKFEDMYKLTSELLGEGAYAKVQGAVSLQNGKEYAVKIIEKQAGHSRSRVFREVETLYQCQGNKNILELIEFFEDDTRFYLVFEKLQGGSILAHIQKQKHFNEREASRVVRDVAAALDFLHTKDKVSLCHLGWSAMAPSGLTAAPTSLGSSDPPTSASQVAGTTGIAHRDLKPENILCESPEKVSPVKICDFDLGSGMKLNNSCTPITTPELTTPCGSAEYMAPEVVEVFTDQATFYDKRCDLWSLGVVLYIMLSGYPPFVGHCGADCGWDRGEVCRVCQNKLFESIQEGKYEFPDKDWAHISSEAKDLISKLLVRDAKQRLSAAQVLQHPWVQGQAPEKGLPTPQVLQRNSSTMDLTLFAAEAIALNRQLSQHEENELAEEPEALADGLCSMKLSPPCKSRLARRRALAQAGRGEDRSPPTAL

IC50 (MNK2)	inhibition at 1 µM (MNK2)	IC50 (MNK1)	inhibition at 1 µM (MNK1)	SMILES
< 50 nM	> 75%	< 50 nM	> 75%	N#Cc1ccc(-c2cnc3sc(-c4ccc(C(=O)N5CCOCC5)cc4)nn23)cc1 [Compound 1, 4-(2-(4-(morpholine-4-carbonyl)phenyl)imidazo[2,1-b][1,3,4]thiadiazol-5-yl)benzonitrile]
–	> 75%	–	> 75%	COC(=O)c1ccc(-c2cnc3sc(-c4ccc(C(=O)N5CCOCC5)cc4)nn23)cc1 [Compound 4]
50 to 200 nM	> 75%	50 to 200 nM	> 75%	O=C(c1ccc(-c2nn3c(-c4ccc(Cl)cc4)cnc3s2)cc1)N1CCOCC1 [Compound 6, (4-(5-(4-chlorophenyl)imidazo[2,1-b][1,3,4]thiadiazol-2-yl)phenyl)(morpholino)methanone]
–	> 75%	–	> 75%	Cc1ccc(-c2cnc3sc(-c4ccc(C(=O)N5CCOCC5)cc4)nn23)cc1 [Compound 7, morpholino(4-(5-(p-tolyl)imidazo[2,1-b][1,3,4]thiadiazol-2-yl)phenyl)methanone]
< 50 nM	> 75%	50 to 200 nM	> 75%	O=C(c1ccc(-c2nn3c(-c4ccc(O)c(F)c4)cnc3s2)cc1)N1CCOCC1 [Compound 10, (4-(5-(3-fluoro-4-hydroxyphenyl)imidazo[2,1-b][1,3,4]thiadiazol-2-yl)phenyl)(morpholino)methanone]
–	> 75%	–	> 75%	O=C(c1ccc(-c2nn3c(-c4ccc(F)c(F)c4)cnc3s2)cc1)N1CCOCC1 [Compound 11, (4-(5-(3,4-difluorophenyl)imidazo[2,1-b][1,3,4]thiadiazol-2-yl)phenyl)(morpholino)methanone]
< 50 nM	> 75%	< 50 nM	> 75%	CN(C)C1CCN(C(=O)c2ccc(-c3nn4c(-c5ccc(F)cc5)cnc4s3)cc2)CC1 [Compound 13, (4-(dimethylamino)piperidin-1-yl)(4-(5-(4-fluorophenyl)imidazo[2,1-b][1,3,4]thiadiazol-2-yl)phenyl)methanone]
< 50 nM	> 75%	50 to 200 nM	> 75%	CN1CCN(C(=O)c2ccc(-c3nn4c(-c5ccc(F)cc5)cnc4s3)cc2)CC1 [Compound 18, (4-(5-(4-fluorophenyl)imidazo[2,1-b][1,3,4]thiadiazol-2-yl)phenyl)(4-methylpiperazin-1-yl)methanone]
50 to 200 nM	> 75%	200 to 800 nM	> 75%	CN1CCN(C(=O)c2ccc(-c3nn4c(-c5ccncc5)cnc4s3)cc2)CC1 [Compound 20, (4-methylpiperazin-1-yl)(4-(5-(pyridin-4-yl)imidazo[2,1-b][1,3,4]thiadiazol-2-yl)phenyl)methanone]

Continued, compound first:

SMILES	IC50 (MNK2)	inhibition at 1 µM (MNK2)	IC50 (MNK1)	inhibition at 1 µM (MNK1)
O=C(c1ccc(-c2nn3c(-c4ccc(F)cc4)cnc3s2)cc1)N1CCOCC1 [Compound 2, (4-(5-(4-fluorophenyl)imidazo[2,1-b][1,3,4]thiadiazol-2-yl)phenyl)(morpholino)methanone]	< 50 nM	> 75%	200 to 800 nM	> 75%
O=C(c1ccc(-c2nn3c(-c4ccc(O)cc4)cnc3s2)cc1)N1CCOCC1 [Compound 3, (4-(5-(4-hydroxyphenyl)imidazo[2,1-b][1,3,4]thiadiazol-2-yl)phenyl)(morpholino)methanone]	< 50 nM	> 75%	< 50 nM	> 75%
O=C(c1ccc(-c2nn3c(-c4ccc(C(F)(F)F)cc4)cnc3s2)cc1)N1CCOCC1 [Compound 5, morpholino(4-(5-(4-(trifluoromethyl)phenyl)imidazo[2,1-b][1,3,4]thiadiazol-2-yl)phenyl)methanone]	50 to 200 nM	> 75%	50 to 200 nM	> 75%
O=C(c1ccc(-c2nn3c(-c4ccc(CO)cc4)cnc3s2)cc1)N1CCOCC1 [Compound 8]	200 to 800 nM	> 75%	200 to 800 nM	> 75%
O=C(c1ccc(-c2nn3c(-c4ccc(C(F)(F)F)c(F)c4)cnc3s2)cc1)N1CCOCC1 [Compound 9, (4-(5-(3-fluoro-4-(trifluoromethyl)phenyl)imidazo[2,1-b][1,3,4]thiadiazol-2-yl)phenyl)(morpholino)methanone]	–	> 75%	–	> 75%
CN(C)C1CCN(C(=O)c2ccc(-c3nn4c(-c5ccc(O)cc5)cnc4s3)cc2)CC1 [Compound 14, (4-(dimethylamino)piperidin-1-yl)(4-(5-(4-hydroxyphenyl)imidazo[2,1-b][1,3,4]thiadiazol-2-yl)phenyl)methanone]	< 50 nM	> 75%	< 50 nM	> 75%
COc1ccc(-c2cnc3sc(-c4ccc(C(=O)N5CCC(N(C)C)CC5)cc4)nn23)cc1 [Compound 15, (4-(dimethylamino)piperidin-1-yl)(4-(5-(4-methoxyphenyl)imidazo[2,1-b][1,3,4]thiadiazol-2-yl)phenyl)methanone]	< 50 nM	> 75%	< 50 nM	> 75%
CN(C)C1CCN(C(=O)c2ccc(-c3nn4c(-c5ccc(C(F)(F)F)cc5)cnc4s3)cc2)CC1 [Compound 16]	< 50 nM	> 75%	< 50 nM	> 75%
CN1CCN(C(=O)c2ccc(-c3nn4c(-c5ccc(C#N)cc5)cnc4s3)cc2)CC1 [Compound 17, 4-(2-(4-(4-methylpiperazine-1-carbonyl)phenyl)imidazo[2,1-b][1,3,4]thiadiazol-5-yl)benzonitrile]	< 50 nM	> 75%	< 50 nM	> 75%
COC(=O)c1ccc(-c2cnc3sc(-c4ccc(C(=O)N5CCN(C)CC5)cc4)nn23)cc1 [Compound 19, methyl 4-(2-(4-(4-methylpiperazine-1-carbonyl)phenyl)imidazo[2,1-b][1,3,4]thiadiazol-5-yl)benzoate]	50 to 200 nM	> 75%	200 to 800 nM	> 75%
CN1CCN(C(=O)c2ccc(-c3nn4c(-c5ccc(C(F)(F)F)cc5)cnc4s3)cc2)CC1 [Compound 21, (4-methylpiperazin-1-yl)(4-(5-(4-(trifluoromethyl)phenyl)imidazo[2,1-b][1,3,4]thiadiazol-2-yl)phenyl)methanone]	< 50 nM	> 75%	< 50 nM	> 75%
CN1CCN(C(=O)c2ccc(-c3nn4c(-c5ccc(Cl)cc5)cnc4s3)cc2)CC1 [Compound 22, (4-(5-(4-chlorophenyl)imidazo[2,1-b][1,3,4]thiadiazol-2-yl)phenyl)(4-methylpiperazin-1-yl)methanone]	< 50 nM	> 75%	< 50 nM	> 75%
CN1CCN(C(=O)c2ccc(-c3nn4c(-c5ccc(C(F)(F)F)c(F)c5)cnc4s3)cc2)CC1 [Compound 23, (4-(5-(3-fluoro-4-(trifluoromethyl)phenyl)imidazo[2,1-b][1,3,4]thiadiazol-2-yl)phenyl)(4-methylpiperazin-1-yl)methanone]	200 to 800 nM	> 75%	200 to 800 nM	> 75%
